# Laboratory results as given in US20190031618A1, “BENZIMIDAZOLE DERIVATIVES USEFUL AS CB-1 INVERSE AGONISTS” (Janssen Pharmaceutica NV, priority 2015, published 2019).
# Test system: DIO mice
# Assay: Chronic DIO Mouse: food intake, body weight, plasma insulin
# Assay type: in vivo
# Settings: for Mean Body Weight (Std Err) / Plasma Insulin (Std Err): DIO mice; for Plasma Insulin (Std Err): chronic study; for Mean Daily Food Intake: chronic DIO mouse, (Std Err)
# Description: Male 14-20-week old diet-induced obese mice are ordered from Taconic. Mice were started on a 60% fat diet (D12492, Research Diets, New Brunswick, N.J.) at 6 weeks of age. Mice are single-housed.
# DIO mice received vehicle, test compound (@ 1, 3, 10, and 30 mg/kg) daily for 26 days. At the end of the experiment, the mice were euthanized and blood and tissues were collected.
# Body weight and food weight (food intake) were monitored daily for days 1-5 and twice weekly thereafter.
# Blood glucose was measured from the tail vein with a Lifescan glucometer. Plasma insulin was measured with an ELISA or HTRF kit (Cisbio). Plasma parameters were measured with an Olympus clinical chemistry analyzer.
compound,measurement,setting,value
O=C(O)c1cccc(CN2CCC(n3c(C4CC4)nc4ccc(C(c5ccc(Cl)cc5)c5ccc(Cl)cc5)cc43)CC2)c1 [Example 148],Mean Body Weight (Std Err),"1 mg/kg daily, Day 0",42.03 (0.80) Grams
same,Mean Body Weight (Std Err),"1 mg/kg daily, Day 1",42.63 (0.79) Grams
same,Mean Body Weight (Std Err),"1 mg/kg daily, Day 2",42.56 (0.86) Grams
same,Mean Body Weight (Std Err),"1 mg/kg daily, Day 3",42.46 (0.91) Grams
same,Mean Body Weight (Std Err),"1 mg/kg daily, Day 4",42.26 (0.87) Grams
same,Mean Body Weight (Std Err),"1 mg/kg daily, Day 5",42.31 (0.81) Grams
same,Mean Body Weight (Std Err),"1 mg/kg daily, Day 8",41.62 (0.79) Grams
same,Mean Body Weight (Std Err),"1 mg/kg daily, Day 11",41.91 (0.77) Grams
same,Mean Body Weight (Std Err),"1 mg/kg daily, Day 15",42.67 (1.02) Grams
same,Mean Body Weight (Std Err),"1 mg/kg daily, Day 18",40.54 (1.23) Grams
same,Mean Body Weight (Std Err),"1 mg/kg daily, Day 24",41.11 (1.30) Grams
same,Plasma Insulin (Std Err),1 mg/kg daily,5.92 (0.92) ng/mL
same,Mean Body Weight (Std Err),"3 mg/kg daily, Day 0",42.28 (0.49) Grams
same,Mean Body Weight (Std Err),"3 mg/kg daily, Day 1",42.94 (0.45) Grams
same,Mean Body Weight (Std Err),"3 mg/kg daily, Day 2",42.12 (0.43) Grams
same,Mean Body Weight (Std Err),"3 mg/kg daily, Day 3",41.85 (0.47) Grams
same,Mean Body Weight (Std Err),"3 mg/kg daily, Day 4",41.42 (0.44) Grams
same,Mean Body Weight (Std Err),"3 mg/kg daily, Day 5",41.3 (0.36) Grams
same,Mean Body Weight (Std Err),"3 mg/kg daily, Day 8",39.78 (0.29) Grams
same,Mean Body Weight (Std Err),"3 mg/kg daily, Day 11",39.1 (0.41) Grams
same,Mean Body Weight (Std Err),"3 mg/kg daily, Day 15",40.43 (0.40) Grams
same,Mean Body Weight (Std Err),"3 mg/kg daily, Day 18",39.84 (0.53) Grams
same,Mean Body Weight (Std Err),"3 mg/kg daily, Day 24",40.48 (0.48) Grams
same,Plasma Insulin (Std Err),3 mg/kg daily,4.74 (0.83) ng/mL
same,Mean Body Weight (Std Err),"10 mg/kg daily, Day 0",42.09 (0.85) Grams
same,Mean Body Weight (Std Err),"10 mg/kg daily, Day 1",42.69 (0.74) Grams
same,Mean Body Weight (Std Err),"10 mg/kg daily, Day 2",40.46 (0.66) Grams
same,Mean Body Weight (Std Err),"10 mg/kg daily, Day 3",39.85 (0.68) Grams
same,Mean Body Weight (Std Err),"10 mg/kg daily, Day 4",39.44 (0.70) Grams
same,Mean Body Weight (Std Err),"10 mg/kg daily, Day 5",38.78 (0.70) Grams
same,Mean Body Weight (Std Err),"10 mg/kg daily, Day 8",37.4 (0.67) Grams
same,Mean Body Weight (Std Err),"10 mg/kg daily, Day 11",36.99 (0.78) Grams
same,Mean Body Weight (Std Err),"10 mg/kg daily, Day 15",37.33 (0.84) Grams
same,Mean Body Weight (Std Err),"10 mg/kg daily, Day 18",37.02 (0.88) Grams
same,Mean Body Weight (Std Err),"10 mg/kg daily, Day 24",36.42 (1.25) Grams
same,Plasma Insulin (Std Err),10 mg/kg daily,2.20 (0.13) ng/mL
same,Mean Body Weight (Std Err),"30 mg/kg daily, Day 0",42.46 (0.58) Grams
same,Mean Body Weight (Std Err),"30 mg/kg daily, Day 1",43.13 (0.69) Grams
same,Mean Body Weight (Std Err),"30 mg/kg daily, Day 2",39.64 (0.68) Grams
same,Mean Body Weight (Std Err),"30 mg/kg daily, Day 3",38.53 (0.66) Grams
same,Mean Body Weight (Std Err),"30 mg/kg daily, Day 4",37.46 (0.75) Grams
same,Mean Body Weight (Std Err),"30 mg/kg daily, Day 5",36.67 (0.75) Grams
same,Mean Body Weight (Std Err),"30 mg/kg daily, Day 8",34.95 (0.78) Grams
same,Mean Body Weight (Std Err),"30 mg/kg daily, Day 11",33.79 (0.87) Grams
same,Mean Body Weight (Std Err),"30 mg/kg daily, Day 15",34.19 (0.64) Grams
same,Mean Body Weight (Std Err),"30 mg/kg daily, Day 18",32.47 (0.92) Grams
same,Mean Body Weight (Std Err),"30 mg/kg daily, Day 24",32.86 (0.91) Grams
same,Plasma Insulin (Std Err),30 mg/kg daily,2.85 (0.27) ng/mL
same,Mean Daily Food Intake,"1 mg/kg daily, Day 2",2.3 (0.1) Grams
same,Mean Daily Food Intake,"1 mg/kg daily, Day 3",2.3 (0.1) Grams
same,Mean Daily Food Intake,"1 mg/kg daily, Day 4",2.2 (0.1) Grams
same,Mean Daily Food Intake,"1 mg/kg daily, Day 5",2.4 (0.1) Grams
same,Mean Daily Food Intake,"1 mg/kg daily, Day 8",2.1 (0.1) Grams
same,Mean Daily Food Intake,"1 mg/kg daily, Day 11",2.3 (0.1) Grams
same,Mean Daily Food Intake,"1 mg/kg daily, Day 15",2.4 (0.1) Grams
same,Mean Daily Food Intake,"1 mg/kg daily, Day 18",1.6 (0.3) Grams
same,Mean Daily Food Intake,"1 mg/kg daily, Day 24",2.1 (0.2) Grams
same,Mean Daily Food Intake,"3 mg/kg daily, Day 2",2.0 (0.2) Grams
same,Mean Daily Food Intake,"3 mg/kg daily, Day 3",2.0 (0.1) Grams
same,Mean Daily Food Intake,"3 mg/kg daily, Day 4",1.9 (0.2) Grams
same,Mean Daily Food Intake,"3 mg/kg daily, Day 5",1.8 (0.2) Grams
same,Mean Daily Food Intake,"3 mg/kg daily, Day 8",1.7 (0.1) Grams
same,Mean Daily Food Intake,"3 mg/kg daily, Day 11",1.8 (0.1) Grams
same,Mean Daily Food Intake,"3 mg/kg daily, Day 15",2.5 (0.1) Grams
